Source: US9920030B2 (priority 2006, dated 2018)
Where two headings read alike, the source gives them in different places.

Key:
Type in all cases: in vivo
[1] = system: Phytophthora infestans (the causal agent of tomato late blight); assay: whole plant or invertebrate
[2] = system: Phytophthora infestans (the causal agent of tomato late blight); assay: whole plant or invertebrate; remark: listed apart in the source
[3] = system: Plasmopara vilicola (the causal agent of grape downy mildew); assay: Test A: grape downy mildew, test suspension sprayed on grape seedlings after inoculation, visual disease rating
Source text: General protocol for preparing test suspensions for Test A-C: The test compounds were first dissolved in acetone in an amount equal to 3% of the final volume and then suspended at the desired concentration (in ppm) in acetone and purified water (50/50 mix by volume) containing 250 ppm of the surfactant Trem® 014 (polyhydric alcohol esters). The resulting test suspensions were then used in Tests A-C. Spraying a 200 ppm test suspension to the point of run-off on the test plants was equivalent to a rate of 500 g/ha.
Grape seedlings were inoculated with a spore suspension of Plasmopara vilicola (the causal agent of grape downy mildew) and incubated in a saturated atmosphere at 20° C. for 24 h. After a short drying period, the test suspension was sprayed to the point of run-off on the grape seedlings, which were then moved to a growth chamber at 20° C. for 5 days, after which time the grape seedling were placed back into a saturated atmosphere at 20° C. for 24 h. Upon removal, visual disease ratings were made.
Results for Tests A-C are given in Table A. In the table, a rating of 100 indicates 100% disease control and a rating of 0 indicates no disease control (relative to the controls). A dash (-) indicates no test results.

[4] = compounds without asterisk (application rate not given), 100 = 100% disease control, 0 = no control relative to the controls
[5] = Phytophthora infestans, 96 h, read-out: Percent Disease Control, Test C
[6] = Phytophthora infestans, 144 h, read-out: Percent Disease Control, Test B
[7] = Plasmopara, 144 h, * tested at 40 ppm, read-out: Percent Disease Control, Test A

Row | SMILES | Percent Disease Control, Test C [1, 4] [%] | Percent Disease Control, Test B [2, 4] [%] | Percent Disease Control, Test A [3, 4] [%] | further results
1 | Cc1cc(C(F)(F)F)nn1CC(=O)N1CCC(c2nc(C3=NOC4(CCC(c5ccccc5)C4)C3)cs2)CC1 (single isomer, unassigned) [Compound 158] | 99 | 100 | 96 | 
2 | Cc1cc(C(F)(F)F)nn1CC(=O)N1CCC(c2nc(C3=NOC4(COC(c5ccccc5)OC4)C3)cs2)CC1 (single isomer, unassigned) [Compound 175] | 33 | 100 | 68 | 
3 | Cc1cc(C(F)(F)F)nn1CC(=O)N1CCC(c2nc(C3=NOC4(COC(c5ccccc5)OC4)C3)cs2)CC1 (single isomer, unassigned) [Compound 176] | 63 | 100 | 68 | 
4 | Cc1cc(C(F)(F)F)nn1CC(=O)N1CCC(c2nc(C3=NOC4(CCC(C)(c5ccccc5)CC4)C3)cs2)CC1 (single isomer, unassigned) [Compound 186] |  |  |  | Percent Disease Control, Test C ([1]; * tested at 40 ppm): 86%; Percent Disease Control, Test B ([2]; * tested at 40 ppm): 100%; Percent Disease Control, Test A ([3]; * tested at 40 ppm): 95%
5 | Cc1cc(C(F)(F)F)nn1CC(=O)N1CCC(c2nc(C3=NOC4(CCC(C)(c5ccccc5)CC4)C3)cs2)CC1 (single isomer, unassigned) [Compound 187] |  |  |  | Percent Disease Control, Test C ([1]; * tested at 40 ppm): 93%; Percent Disease Control, Test B ([2]; * tested at 40 ppm): 100%; Percent Disease Control, Test A ([3]; * tested at 40 ppm): 99%
6 | Cc1cc(C(F)(F)F)nn1CC(=O)N1CCC(c2nc(C3=NOC4(CCCC(C#N)C4)C3)cs2)CC1 (single isomer, unassigned) [Compound 253] |  |  |  | Percent Disease Control, Test C ([1]; * tested at 40 ppm): 95%; Percent Disease Control, Test B ([2]; * tested at 40 ppm): 100%; Percent Disease Control, Test A ([3]; * tested at 40 ppm): 100%
7 | Cc1cc(C(F)(F)F)nn1CC(=O)N1CCC(c2nc(C3=NOC4(CCCC(C#N)C4)C3)cs2)CC1 (single isomer, unassigned) [Compound 254] |  |  |  | Percent Disease Control, Test C ([1]; * tested at 40 ppm): 93%; Percent Disease Control, Test B ([2]; * tested at 40 ppm): 100%; Percent Disease Control, Test A ([3]; * tested at 40 ppm): 100%
8 | Cc1cc(C(F)(F)F)nn1CC(=O)N1CCC(c2nc(C3=NOC4(CCC(C#N)CC4)C3)cs2)CC1 (single isomer, unassigned) [Compound 255] |  |  |  | Percent Disease Control, Test C ([1]; * tested at 40 ppm): 93%; Percent Disease Control, Test B ([2]; * tested at 40 ppm): 100%; Percent Disease Control, Test A ([3]; * tested at 40 ppm): 95%
9 | Cc1cc(C(F)(F)F)nn1CC(=O)N1CCC(c2nc(C3=NOC4(CCC(C#N)CC4)C3)cs2)CC1 (single isomer, unassigned) [Compound 256] |  |  |  | Percent Disease Control, Test C ([1]; * tested at 40 ppm): 99%; Percent Disease Control, Test B ([2]; * tested at 40 ppm): 100%; Percent Disease Control, Test A ([3]; * tested at 40 ppm): 100%
10 | Cc1cc(C(F)(F)F)nn1CC(=O)N1CCC(c2nc(C3=NO[C@@H](c4ccccc4)C3)cs2)CC1 [Compound 3, 1-[4-[4-[(5R)-4,5-dihydro-5-phenyl-3-isoxazolyl]-2-thiazolyl]-1-piperidinyl]-2-[5-methyl-3-(trifluoromethyl)-1H-pyrazol-1-yl]ethanone] |  |  |  | pest or weed control at 10 µg/mL [1, 5]: 99%; pest or weed control at 10 µg/mL [2, 6]: 100%; pest or weed control at 10 µg/mL ([3]; Plasmopara, 144 h, ** tested at l0 ppm, read-out: Percent Disease Control, Test A): 100%
11 | Cc1cc(C(F)(F)F)nn1CC(=O)N1CCC(c2nc(C3CC(c4ccccc4)=NO3)cs2)CC1 (stereo not drawn) [Compound 6, 4-[4-(4,5-dihydro-3-phenyl-5-isoxazolyl)-2-thiazolyl]-1-[(5-methyl-3-(trifluoromethyl)-1H-pyrazol-1-yl)acetyl]piperidine] |  |  |  | pest or weed control at 40 ppm [1, 5]: 99%; pest or weed control at 40 ppm [2, 6]: 100%; pest or weed control at 40 ppm [3, 7]: 95%
12 | CC(=O)N1C(c2ccccc2)COC1c1csc(C2CCN(C(=O)Cn3nc(C(F)(F)F)cc3C)CC2)n1 (stereo not drawn) [Compound 14] | 99 | 99 | 25 | 
13 | Cc1cc(C(F)(F)F)nn1CC(=O)N1CCC(c2nc(C3=NOC(c4ccccc4)C3C)cs2)CC1 (stereo not drawn) [Compound 25] |  |  |  | Percent Disease Control, Test C ([1]; * tested at 40 ppm): 99%; Percent Disease Control, Test B ([2]; * tested at 40 ppm): 100%; Percent Disease Control, Test A ([3]; * tested at 40 ppm): 100%
14 | Cc1cc(C(F)(F)F)nn1CC(=O)N1CCC(c2nc(-c3ccc(-c4ccccc4)cc3)cs2)CC1 [Compound 26] | 33 | 83 | 76 | 
15 | Cc1cc(C(F)(F)F)nn1CC(=O)N1CCC(c2nc(C3=NOC(C)(c4ccccc4)CC3)cs2)CC1 (stereo not drawn) [Compound 29] | 99 | 100 | 99 | 
16 | Cc1cc(C(F)(F)F)nn1CC(=O)N1CCC(c2nc(-c3cc(-c4ccccc4)no3)cs2)CC1 [Compound 30] |  |  |  | Percent Disease Control, Test C ([1]; ** tested at l0 ppm): 50%; Percent Disease Control, Test B ([2]; ** tested at l0 ppm): 57%; Percent Disease Control, Test A ([3]; ** tested at l0 ppm): 31%
17 | Cc1cc(C(F)(F)F)nn1CC(=O)N1CCC(c2nc(C3=NC(c4ccccc4)CO3)cs2)CC1 (stereo not drawn) [Compound 31] |  |  |  | Percent Disease Control, Test C ([1]; ** tested at l0 ppm): 60%; Percent Disease Control, Test B ([2]; ** tested at l0 ppm): 83%; Percent Disease Control, Test A ([3]; ** tested at l0 ppm): 84%

Row | SMILES | Percent Disease Control, Test C [1, 4] [%] | Percent Disease Control, Test B [2, 4] [%] | Percent Disease Control, Test A [3, 4] [%] | further results
18 | Cc1cc(C(F)(F)F)nn1CC(=O)N1CCC(c2nc(C3=NCCN3Cc3ccccc3)cs2)CC1 [Compound 32] | 0 | 26 | 0 | 
19 | Cc1cc(C(F)(F)F)nn1CC(=O)N1CCC(n2cc(-c3cccc(-c4ccccc4)c3)cn2)CC1 [Compound 33] | 0 | 9 | 15 | 
20 | Cc1cc(C(F)(F)F)nn1CC(=O)N1CCC(n2cc(-c3cccc(-c4ccccc4)n3)cn2)CC1 [Compound 34] | 0 | 40 | 0 | 
21 | Cc1cc(C(F)(F)F)nn1CC(=O)N1CCC(c2nc(C3=NOC4(CCCc5ccccc54)C3)cs2)CC1 (stereo not drawn) [Compound 37, 1-[4-[4-(3′,4′-dihydrospiro[isoxazole-5(4H), 1′,(2′H)-naphthalen]-3-yl)-2-thiazolyl]-1-piperidinyl]-2-[5-methyl-3-(trifluoromethyl)-1H-pyrazol-1-yl]ethanone] |  |  |  | Percent Disease Control, Test C ([1]; * tested at 40 ppm): 99%; Percent Disease Control, Test B ([2]; * tested at 40 ppm): 100%; Percent Disease Control, Test A ([3]; * tested at 40 ppm): 100%
22 | Cc1cc(C(F)(F)F)nn1CC(=O)N1CCC(c2nc(C3=NOC(c4cc(Cl)cc(Cl)c4)(C(F)(F)F)C3)cs2)CC1 (stereo not drawn) [Compound 39] | 0 | 67 | 8 | 
23 | Cc1cc(C(F)(F)F)nn1CC(=O)N1CCC(c2nc(-c3nnc(-c4ccccc4)o3)cs2)CC1 [Compound 40] | 99 | 100 | 47 | 
24 | Cc1cc(C(F)(F)F)nn1CC(=O)N1CCC(c2nc(-c3ncc(-c4ccccc4)o3)cs2)CC1 [Compound 42] | 96 | 100 | 62 | 
25 | Cc1cc(C(F)(F)F)nn1CC(=O)N1CCC(c2nc(-c3nc4ccccc4s3)cs2)CC1 [Compound 43] | 0 | 43 | 0 | 
26 | Cc1cc(C(F)(F)F)nn1CC(=O)N1CCC(c2nc(C3=NOC4(CCc5ccccc54)C3)cs2)CC1 (stereo not drawn) [Compound 44, 1-[4-[4-(2,3-dihydrospiro[1H-indene-1,5′(4′H)-isoxazol]-3′-yl)-2-thiazolyl]-1-piperidinyl]-2-[5-methyl-3-(trifluoromethyl)-1H-pyrazol-1-yl]ethanone] |  |  |  | pest or weed control at 40 ppm [1, 5]: 99%; pest or weed control at 40 ppm [2, 6]: 100%; pest or weed control at 40 ppm [3, 7]: 100%
27 | Cc1cc(C(F)(F)F)nn1CC(=O)N1CCC(c2nc(C3=NOC4C(=O)N(C)C(=O)C34)cs2)CC1 (stereo not drawn) [Compound 45] | 0 | 26 | 30 | 
28 | Cc1cc(C(F)(F)F)nn1CC(=O)N1CCC(c2nc(C3=NCC(c4ccccc4)O3)cs2)CC1 (stereo not drawn) [Compound 47] | 47 | 85 | 0 | 
29 | Cc1cc(C(F)(F)F)nn1CC(=O)N1CCC(c2nc(C3=NCCC(c4ccccc4)O3)cs2)CC1 (stereo not drawn) [Compound 48] | 0 | 85 | 0 | 
30 | Cc1cc(C(F)(F)F)nn1CC(=O)N1CCC(c2nc(C3=NC(c4ccccc4)CO3)cs2)CC1 (stereo not drawn) [Compound 49] | 96 | 100 | 0 | 
31 | Cc1cc(C(F)(F)F)nn1CC(=O)N1CCC(c2nc(C3=NCC(c4ccccc4)O3)cs2)CC1 (stereo not drawn) [Compound 50] | 99 | 100 | 0 | 
32 | Cc1cc(C(F)(F)F)nn1CC(=O)N1CCC(c2nc(C3=NOC4c5ccccc5CC34)cs2)CC1 (stereo not drawn) [Compound 51] | 99 | 100 | 99 | 
33 | Cc1cc(C(F)(F)F)nn1CC(=O)N1CCC(c2nc(-c3nc4ccccc4o3)cs2)CC1 [Compound 52] | 67 | 100 | 85 | 
